Assay results reported in patent US20060167106A1, “Compounds acting at the centrosome” (priority 2004, published 2006).

Assays:
[1] = test system: Hsp70; experiment: Hsp70 Western blotting in MDA-435 cells; type: cell-based; details: 0.5 μM, normalized to background and GAPDH
Description: Calculations of the percentage changes were made by using the automated band analysis tools of the Kodak 1D (v.3.6.3) program. Band intensities were normalized to background and GAPDH.
MDA-435 breast cancer cells were grown in 100 mm plastic-tissue culture dishes and treated for 6 and 24 hours with 0.5 μM Taxol, Compound 1, Taxol+Compound 1, MG132, ALLN, or DMSO. After treatment, cells were washed in PBS and cell lysates were prepared by adding 100 μL of lysis buffer, which contained 20 mM Tris-HCl (pH 7.5), 150 mM NaCl, 1 mM Na2EDTA, 1 mM EGTA, 1% Triton, 2.5 mM sodium pyrophosphate, 1 mM β-glycerophosphate, 1 mM Na3VO4 and 1 μg/ml leupeptin (Cell Signaling Technology, Beverly, Mass.) supplemented with 1 mM PMSF (Sigma, St. Louis, Mo.) immediately before use, on ice for 1 hour. After scraping, the lysates were cleared by centrifugation at 13,000 RPM for 10 minutes at 4° C. Protein content was determined using a Bradford assay and bovine serum albumin as a standard (Bio-Rad Laboratories, Hercules, Calif.). Samples were solubilized by boiling in SDS sample buffer and subjected to SDS-PAGE. The proteins were subsequently transferred to a PVDF membrane (Bio-Rad, Hercules, Calif.). After blocking with 5% nonfat milk in TBS for 1 hour, the blots were incubated with a mouse monoclonal anti-Hsp70 antibody, which is specific for the inducible form of Hsp70 (Clone C92F3A-5, 1:1000 dilution, Stressgen Biotechnologies Corp., Victoria, B.C., Canada) or a rabbit polyclonal anti-GAPDH antibody (1:2000 dilution, Abcam, Cambridge, Mass.) for 2 hours at room temperature. The horseradish-peroxidase-conjugated secondary antibodies, anti-mouse horse radish peroxidase, (1:2000, Bio-Rad, Hercules, Calif.) and goat anti-rabbit polyclonal horse radish peroxidase (1:2000, Abcam, Cambridge, Mass.)) were diluted in blocking buffer and incubated with the blot for 1 hour at room temperature. The secondary antibodies were detected by enhanced chemiluminescence (ECL, Amersham Biosciences, Piscataway, N.J.) and imaged using a Kodak 440 Image Station.

[2] = test system: CHO-α-tubulin-YFP cells; experiment: α-tubulin-YFP localization in CHO-α-tubulin-YFP cells (fluorescence imaging); type: cell-based, Chinese hamster
Excerpt: Wild-type Chinese Hamster Ovary cells (WT CHO) cells were maintained in Ham's F-12 medium supplemented with 10% fetal bovine serum (FBS; HyClone, Logan, Utah). Cells of low density (˜20%) growing on 2-well chambered cover-slips (Labtek (Campbell, Calif.) or Fisher Scientific) were transfected with a mammalian expression vector encoding α-tubulin-YFP (Clontech, Palo Alto, Calif.) with the use of FuGENE 6 (Roche Molecular Biochemicals, Indianapolis, Ind.), according to the manufacturer's instructions. Twenty-four hours after transfection, the cells were cultured in 400 μg/ml G418 (Invitrogen, Carlsbad, Calif.)-containing selection medium for 2 weeks. Living cells were examined using a fluorescent microscope for α-tubulin-YFP expression. Cells in single colonies containing microtubules labeled with α-tubulin-YFP were lifted and expanded in G418-containing medium. Expression of α-tubulin-YFP was confirmed by the presence of the tubulin-YFP labeled microtubule pattern identical to immunostained microtubule pattern of non-transfected cells, as well as by subjecting the cells to Western blot analysis using an anti-GFP antibody (Roche Molecular Biochemicals, Basel, Switzerland) and confirming the correct mass of the α-tubulin-YFP chimera protein. Expressed tubulin-YFP was detected as a single band in Western blots. The tubulin-YFP expressing cell lines (referred as CHO-α-tubulin-YFP cells) were used in the studies.
CHO-α-tubulin-YFP cells were cultured in 2-well chambered cover-slips (Labtek (Campbell, Calif.) or Fisher Scientific) 24 hours before treatment. For comparison of the centrosomal effects of treatment with Compound 1, Compound 1+Taxol, and Taxol, CHO-α-tubulin-YFP cells were treated with Compound 1, Compound 1+Taxol, Taxol, or equivalent concentrations of DMSO-containing media for various time periods before imaging. For comparison of the effects of Compound 1 and known proteasome inhibitors on centrosomes, the nucleus, and perinuclear regions, CHO-α-tubulin-YFP cells were treated with Compound 1, ALLN (Calbiochem, San Diego, Calif.), lactacystin (Calbiochem, San Diego, Calif.) or MG132 (Calbiochem, San Diego, Calif.), and imaged at various time points from 3 hours to 24 hours after treatment.
Tubulin-YFP fluorescence in living cells or fixed cells was captured using a standard filter for FITC and objectives of 20× or 60× magnification on a Nikon TE300 microscope with a Leica DC50 color digital camera (Leica, Bannockburn, Ill.) or a CoolSnap HQ Monochrome CCD camera (Photonetrics, Tucson, Ariz.). The Leica DC50 and CoolSnapHQ cameras were controlled with Leica DC50 software and MetaVue/MetaMorph software, respectively (Universal Imaging Corp, Downingtown, Pa.).
CHO-α-tubulin-YFP cells were cultured in 2-well chambered cover-slips (Labtek (Campbell, Calif.) or Fisher Scientific) 24 hours before treatment. For comparison of effects on the centrosome, nucleus, and perinuclear regions, cells were treated with Compound 1 and known proteasome inhibitors including ALLN, MG132, Lactacystin, MG115, clasto-Lactacystin β-Lactone (cLβL), and Epoxomicin (10 μM final concentration for all except ALLN, which was used at 100 μM final concentration) (proteasome inhibitors were from Calbiochem, San Diego, Calif.) and imaged at various time points up to 24 hours during treatment.
Tubulin-YFP fluorescence in living cells or fixed cells was captured using a standard filter for FITC and objectives of 20× or 60× magnification on the Nikon TE300 microscope/digital imaging system.

[3] = test system: 26S proteasome; experiment: Proteasome-sensor cells (HEK-293, GFP chimera), fluorescence imaging; type: cell-based; details: HEK-293, 100 nM, 24 hours
Excerpt: Specifically, the proteasome-sensor cells are HEK-293 cells stably transfected with a vector (proteasome-sensor vector) that encodes naturally-occurring reef coral Zoanthus sp. green fluorescent protein (GFP) fused to a specific degradation motif that targets the fusion protein for removal by the 26S proteasome. The background fluorescence observed in normal cells with active proteasomes is low. When proteasomes are inhibited, the fluorescent protein quickly accumulates. […] Millennium Pharmaceuticals, Inc., Cambridge, Mass.). […] Velcade (Millennium Pharmaceuticals Inc.) was used as a positive control in this assay (at 5 nM, 50 nM, 500 nM or 5 μM). Velcade stock solution was prepared according to the manufacturer's instructions. GFP fluorescence of the cells was imaged at various time points using a standard filter for FITC with the Nikon TE300 microscope/digital imaging system described herein.

[4] = test system: CHO cells; experiment: Cell morphology, simultaneous time-lapse imaging of CHO cells; type: cell-based, Chinese hamster
Description: CV-1 cells and CHO cells were previously cultured in 2-well chambered cover-slips for 48 hours and incubated in 15 mM HEPES buffer-containing Ham's F-12/DMEM medium with different compounds. The cells were imaged using phase contrast settings with the Nikon TE300 microscope/digital imaging system. The cells were imaged ‘simultaneously’ under control of MetaVue software by capturing frames for cells from different conditions at the same time period using a motorized automated XYZ stage.
To track the effect of Compound 1 on live cells, non-transfected CV-1 cells with were treated with 500 nM Compound 1 and phase contrast time-lapse images were taken every 10 seconds. […] A very low concentration of Taxol (10 nM) was used.

Compound: CC(=O)O[C@H]1C(=O)[C@@]2(C)[C@H]([C@H](OC(=O)c3ccccc3)[C@]3(O)C[C@H](OC(=O)[C@H](O)[C@@H](NC(=O)c4ccccc4)c4ccccc4)C(C)=C1C3(C)C)[C@]1(OC(C)=O)CO[C@@H]1C[C@@H]2O [Taxol]
- percentage change in Hsp70 expression relative to DMSO control ([1]; 6 hours of treatment): 86%
- percentage change in Hsp70 expression relative to DMSO control ([1]; 24 hours of treatment): 556%
- accumulation of tubulin-YFP at the centrosomes ([2]; CHO cells, 0.1 μM, 24 hours): lack of accumulation of tubulin-YFP at the centrosomes
- accumulation of tubulin in the centrosomes (overall statement) ([2]; CHO-tubulin-YFP cells, concentration and time not given): no such effect
- accumulation of proteasome-sensor protein in cells [3]: lack of proteasome-sensor protein in cells
- effect on cell morphology ([4]; CHO cells, 10 nM, up to 210 minutes): did not cause significant cell morphological changes
- cell death ([4]; cells, after a certain period of treatment): cause cell death after a certain period of treatment
